Reference: patent publication US20250382270A1, “3-DIARYLMETHYLENES AND USES THEREOF” (Atux Iskay LLC, priority 2020, published 2025)

test system: A549 cells; experiment: A549 cell growth inhibition assay (alamarBlue); assay type: cell-based; details: Homo sapiens, 72 hours treatment, alamarBlue fluorescence
Method: Example compounds 1a, 2, 4 and 6 were assayed in an A549 cell growth inhibition assay as follows. A549 cells were cultured in DMEM medium with supplement of 10% FBS and 1% Pen-strep. Assay conditions: to perform the proliferation assay, A549 cells were seeded at 5000 cells/90 μl growth medium/well on 96-well black clear-bottom tissue culture plate. Cells were incubated at 37° C. and 5% CO2 overnight to allow them to recover and reattach. Next day cells were treated with tested compounds for 72 hours. After treatment, cell proliferation was measured by Fluorescent quantitation of alamarBlue reagent. The alamarBlue assay incorporates a fluorometric/colorimetric growth indicator based on detection of metabolic activity. Specifically, resazurin, the active ingredient of alamarBlue reagent, is blue in color and virtually non-fluorescent. Upon entering cells, resazurin is reduced to resorufin, a compound that is red in color and highly fluorescent. Continued cell growth maintains a reduced environment, therefore increasing the overall fluorescence and color of the media surrounding cells. Our experiment has shown that the fluorescence intensity of alamarBlue reagent was directly proportional to cell number. To perform the alamarBlue assay, 10 μl of alamarBlue reagent was added to each well and the plate was incubated at 37° C. for an additional 1-4 hours. Fluorescence intensity was measured at an excitation of 530 nm and an emission of 590 nm using a BioTek Synergy™ 2 microplate reader.
Data analysis. Cell proliferation assays in triplicate were performed at each concentration. The fluorescent intensity data were analyzed using the computer software, Graphpad Prism. In the absence of the compound, the fluorescent intensity (Ft) in each data set was defined as 100%. In the absence of cells, the fluorescent intensity (Fb) in each data set was defined as 0%. The percent cell in the presence of each compound was calculated according to the following equation: % cell=(F-Fb)/(Ft-Fb), where F=the fluorescent intensity in the presence of the compound, Fb=the fluorescent intensity in the absence of cells, and Ft=the fluorescent intensity in the absence of the compound. The values of % cell versus a series of compound concentrations were then plotted using non-linear regression analysis of Sigmoidal dose-response curve generated with the equation Y=B+(T-B)/1+10^((LogEC50-X)×Hill Slope), where Y=percent cell, B=minimum percent cell, T=maximum percent cell, X=logarithm of compound and Hill Slope=slope factor or Hill coefficient. The IC50 value was determined by the concentration causing a half-maximal percent activity.

Row | Compound | IC50
1 | O=S(=O)(Nc1ccc(Cl)cc1)N1CCCC(C(c2ccc(F)cc2)c2ccc(F)cc2)C1 (centres unmarked) [Example 6, 3-(bis(4-fluorophenyl)methyl)-N-(4-chlorophenyl)piperidine-1-sulfonamide] | 12.8 µM
2 | COc1cccc2c1C(=O)c1c(O)c3c(c(O)c1C2=O)C[C@@](O)(C(=O)CO)C[C@@H]3O[C@H]1C[C@H](N)[C@H](O)[C@H](C)O1 [Doxorubicin, reference compound] | 0.34 µM

The next lines start with the values.

Row | IC50 | Compound
3 | 9.61 µM | O=S(=O)(Nc1ccc(C(F)(F)F)cc1)N1CCCC(C(c2ccc(F)cc2)c2ccc(F)cc2)C1 (centres unmarked) [Example 4, 3-(bis(4-fluorophenyl)methyl)-N-(4-(trifluoromethyl)phenyl)piperidine-1-sulfonamide]
4 | 22.9 µM | O=S(=O)(Nc1ccccc1)N1CCCC(C(c2ccc(F)cc2)c2ccc(F)cc2)C1 (centres unmarked) [Example 2, 3-(bis(4-fluorophenyl)methyl)-N-phenylpiperidine-1-sulfonamide]
5 | 8.27 µM | O=S(=O)(Nc1ccc(OC(F)(F)F)cc1)N1CCCC(C(c2ccc(F)cc2)c2ccc(F)cc2)C1 (centres unmarked) [Example 1a, 3-(bis(4-fluorophenyl)methyl)-N-(4-(trifluoromethoxy)phenyl)piperidine-1-sulfonamide]

test system: A172 glioblastoma cells; experiment: A172 cell growth inhibition assay (CellTiter-Glo); assay type: cell-based; details: Homo sapiens, A 172, 48-72 hours treatment, CellTiter-Glo luminescence, test range 1-30 μM
Method: Compounds were also assayed in an A172 cell growth inhibition assay as follows. A172 glioblastoma cells were cultured in Dulbecco's modified Eagle's medium (DMEM) supplemented with 10% fetal bovine serum and 1% Penicillin-streptomycin. Incubation was performed at 37° C. and 5% CO2.
A172 cells were seeded at 3000-3500 cells/90 ul growth medium per well on 96-well tissue culture plates. Cells were incubated overnight to allow them to recover and reattach. Next day cells were treated with tested compounds and incubated for 48-72 hours.
Cell Proliferation assays in triplicate were performed at each concentration. Compounds test range was 1-30 μM (0, 5, 10, 15, 20, 25, and 30). The compounds were dissolved in DMSO. A series of dilutions were made in 1% DMSO in growth medium so that the final concentration of DMSO is 0.1% in all of treatments.
After treatment, cells were allowed to equilibrate at room temperature for ½ to one hour. Cell proliferation was measured by Luminescence quantification using Promega CellTiter-Glo Luminescent Cell Viability Assay. To perform the assay, 100 μl of Celltiter-Glo substrate was added to each well, plates were shake for 2 minutes and allowed to equilibrate for 10 minutes at room temperature. Luminescence intensity was measured using the Spectramax i3x plate reader.
The Luminescence intensity data were analyzed using the computer software Graphpad Prism. In the absence of the compound, the luminescence intensity (Lr) in each data set was defined as 100% cell viability. The percent cell in the presence of each compound was calculated according to the following equation: […], where L=the luminescence intensity in the presence of the compound.
The values of % cell versus a series of compound concentrations (0, 5, 10, 15, 20, 25, and 30 μM) were then plotted using nonlinear regression analysis of Sigmoidal dose-response curve. IC50 values were determined by the concentration causing a half-maximal percent activity.

Row | Compound | IC50
6 | O=S(=O)(Nc1cccc(C(F)(F)F)c1)N1CCCC(C(c2ccc(F)cc2)c2ccc(F)cc2)C1 (centres unmarked) [Example 101] | 22.1 µM
7 | O=S(=O)(Nc1ccc(C(F)(F)F)cc1)N1CCOC(C(c2ccc(F)cc2)c2ccc(F)cc2)C1 (centres unmarked) [Example 22] | 26 µM
8 | O=S(=O)(Nc1ccccc1)N1CCCC(=C(c2ccc(F)cc2)c2ccc(F)cc2)C1 [Example 110] | 25 µM
9 | O=S(=O)(Nc1cccc(OC(F)(F)F)c1)N1CCCC(=C(c2ccc(F)cc2)c2ccc(F)cc2)C1 [Example 112] | 24 µM
10 | O=S(=O)(Nc1cccc(C(F)(F)F)c1)N1CCOC(C(c2ccc(F)cc2)c2ccc(F)cc2)C1 (centres unmarked) [Example 102] | 20.6 µM
11 | O=S(=O)(Nc1cc(Cl)cc(Cl)c1)N1CCOC(C(c2ccc(F)cc2)c2ccc(F)cc2)C1 (centres unmarked) [Example 94] | 23.2 µM
12 | O=S(=O)(Nc1cccc(Cl)c1)N1CCOC(C(c2ccc(F)cc2)c2ccc(F)cc2)C1 (centres unmarked) [Example 26] | 28.2 µM
13 | O=S(=O)(Nc1ccc(Cl)c(Cl)c1)N1CCCC(C(c2ccc(F)cc2)c2ccc(F)cc2)C1 (centres unmarked) [Example 100] | 16.2 µM
14 | O=S(=O)(NCc1ccc(F)cc1)N1CCOC(C(c2ccc(F)cc2)c2ccc(F)cc2)C1 (centres unmarked) [Example 97] | 27.2 µM
15 | O=S(=O)(Nc1ccc(C(F)(F)F)cc1)N1CCCC(=C(c2ccc(F)cc2)c2ccc(F)cc2)C1 [Example 109] | 19.2 µM
16 | O=S(=O)(Nc1cccc(C(F)(F)F)c1)N1CCCC(=C(c2ccc(F)cc2)c2ccc(F)cc2)C1 [Example 111] | 30 µM
17 | O=S(=O)(Nc1ccc(Cl)cc1)N1CCOC(C(c2ccc(F)cc2)c2ccc(F)cc2)C1 (centres unmarked) [Example 25] | 19.4 µM
18 | CC(C)(C)OC(=O)Nc1ccc(NS(=O)(=O)N2CCCC(C(c3ccc(F)cc3)c3ccc(F)cc3)C2)cc1 (centres unmarked) [Example 103] | 10.3 µM
19 | O=S(=O)(Nc1ccc(Cl)cc1)N1CCCC(=C(c2ccc(F)cc2)c2ccc(F)cc2)C1 [Example 108] | 16.1 µM
20 | O=S(=O)(Nc1ccc(Cl)c(Cl)c1)N1CCOC(C(c2ccc(F)cc2)c2ccc(F)cc2)C1 (centres unmarked) [Example 93] | 45 µM

The remaining lines, values ahead:

Row | IC50 | Compound
21 | 17.1 µM | O=S(=O)(Nc1ccc(C(F)(F)F)cc1)N1CCCC(C(c2ccc(F)cc2)c2ccc(F)cc2)C1 (centres unmarked) [Example 4, 3-(bis(4-fluorophenyl)methyl)-N-(4-(trifluoromethyl)phenyl)piperidine-1-sulfonamide]
22 | 23 µM | O=S(=O)(Nc1ccccc1)N1CCCC(C(c2ccc(F)cc2)c2ccc(F)cc2)C1 (centres unmarked) [Example 2, 3-(bis(4-fluorophenyl)methyl)-N-phenylpiperidine-1-sulfonamide]
23 | 20.3 µM | O=S(=O)(Nc1ccc(OC(F)(F)F)cc1)N1CCCC(=C(c2ccccc2)c2ccccc2)C1 [Example 105]
24 | 14.8 µM | O=S(=O)(Nc1ccc(OC(F)(F)F)cc1)N1CCCC(=C(c2ccc(F)cc2)c2ccc(F)cc2)C1 [Example 104]
25 | 12.8 µM | O=S(=O)(Nc1ccc2c(c1)OC(F)(F)O2)N1CCCC(C2c3ccccc3CCc3ccccc32)C1 (centres unmarked) [Example 106]
26 | 10.8 µM | O=S(=O)(Nc1cccc(OC(F)(F)F)c1)N1CCCC(C2c3ccccc3CCc3ccccc32)C1 (centres unmarked) [Example 113]
27 | 13 µM | O=S(=O)(Nc1ccc(OC(F)(F)F)cc1)N1CCCC(C2c3ccc(F)cc3CCc3cc(F)ccc32)C1 (centres unmarked) [Example 71]
28 | 51 µM | O=[N+]([O-])c1ccc(NS(=O)(=O)N2CCCC(C3c4ccccc4CCc4ccccc43)C2)cc1 (centres unmarked) [Example 42]
29 | 10.4 µM | O=S(=O)(NCc1ccc(C(F)(F)F)cc1)N1CCCC(C2c3ccccc3CCc3ccccc32)C1 (centres unmarked) [Example 98]
30 | 25.3 µM | O=S(=O)(Nc1ncc(C(F)(F)F)cn1)N1CCCC(C2c3ccccc3CCc3ccccc32)C1 (centres unmarked) [Example 99]
31 | 18.2 µM | O=S(=O)(Nc1ccc(OC(F)(F)F)cc1)N1CCOC(C(c2ccc(F)cc2)c2ccc(F)cc2)C1 (centres unmarked) [Example 19, 2-(bis(4-fluorophenyl)methyl)-N-(4-(trifluoromethoxy)phenyl)morpholine-4-sulfonamide]
32 | 16.1 µM | O=S(=O)(NCc1ccc(F)cc1)N1CCCC(C2c3ccccc3CCc3ccccc32)C1 (centres unmarked) [Example 96]
33 | 11 µM | O=S(=O)(Nc1ccc(OC(F)(F)F)cc1)N1CCCC(C2c3ccccc3CCc3ccccc32)C1 (centres unmarked) [Example 37]
34 | 15.8 µM | O=S(=O)(Nc1ccc(C(F)(F)F)cc1)N1CCCC(C2c3ccccc3CCc3ccccc32)C1 (centres unmarked) [Example 40]
35 | 12.1 µM | O=S(=O)(Nc1ccc(OC(F)(F)F)cc1)N1CCCC(C(c2ccc(F)cc2)c2ccc(F)cc2)C1 (centres unmarked) [Example 1a, 3-(bis(4-fluorophenyl)methyl)-N-(4-(trifluoromethoxy)phenyl)piperidine-1-sulfonamide]
